Holding throughout (test): NCI-60 cell line screen, 48 h
For experiment [1], the system named is CAKI-1 renal.
In experiment [2] the test system is K-562 leukemia.
Experiment [3] relates to NCI-H460 lung.
Experiment [4] deals with SF-539 CNS.
The test system of experiment [5] is SK-MEL-5 melanoma.
Experiment [6] relates to SK-OV-3 ovarian.

Each structure is given as a SMILES string. Where “and” joins values, the source holds several entries; their conditions need not be identical. Equal values may be shown once.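 Cultured in 96-well plates, cells were exposed to test compound for 48 hours across five concentrations. GI50 = concentration required for 50% inhibition of growth. TGI marks complete inhibition of growth.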

Take `CC1=NN=C(C)C1N=Nc1ccc2nc(C)[nH]c2c1`: the TGI is more than 44.7 µM in experiment [1]; more than 100 µM in experiment [2]; more than 100 µM in experiment [3]; more than 88.6 µM in experiment [4]; more than 63.8 µM in experiment [5]; 24.2 µM in experiment [6].

Consider `O=C1CN(c2ccccc2)Cc2nc(Cl)ccc2N1`, for which the TGI in experiment [1], in experiment [2], in experiment [3], in experiment [4], in experiment [5] and in experiment [6] was more than 100 µM each time.

Turning to `CC1(C)OC(=O)C(C)(C)C(=O)O1`, the TGI in experiment [1], in experiment [2], in experiment [3], in experiment [4], in experiment [5] and in experiment [6] was more than 100 µM throughout.

`CCOC(=O)c1c[nH]c(C(=O)OCC)c1-c1cccn1-c1ccccc1`: the TGI stood at 67.7 µM in experiment [1]; 45.4 µM in experiment [2]; 65.5 µM in experiment [3]; 28.4 µM in experiment [5]; 90.6 µM in experiment [6].

On to `CSc1ncnc2c1cnn2Cc1cnnn1COCC(O)CO` (stereo unspecified), for which the TGI in experiment [1], in experiment [2], in experiment [4], in experiment [5] and in experiment [6] was more than 100 µM each time.

Consider `O=C1NC2NC3NC(=O)NC3NC2N1` (stereo unspecified), for which the TGI in experiment [1], in experiment [2], in experiment [4] and in experiment [5] was more than 100 µM in each case.

With `Cc1cccc(C2ON=C(c3ccccc3)N2C23CC4CC(CC(C4)C2)C3)c1` (stereo unspecified), the TGI in experiment [1], in experiment [2], in experiment [3], in experiment [4], in experiment [5] and in experiment [6] was more than 10 µM throughout.

Regarding `CS(=O)(=O)N1CC(CCl)c2ccc(NO)cc21` (stereo unspecified), the TGI in experiment [1] is 27.6 µM; in experiment [2] it was 8.58 µM; in experiment [3], 34.4 µM; in experiment [4], 26.1 µM; in experiment [5], 28.2 µM; in experiment [6], more than 31.6 µM.

Regarding `O=C/C(=C1/C=Cc2cc([N+](=O)[O-])ccc2S1)c1ccccc1`, the TGI in experiment [1], in experiment [2], in experiment [3], in experiment [4], in experiment [5] and in experiment [6] was more than 100 µM in each case.

With `CC(C)[C@@H]1CC[C@@H](C)C[C@H]1OC(=O)c1c2n(c3ccccc13)C[C@H]1OC(C)(C)O[C@@H]21`, the TGI is 87.3 µM in experiment [1], more than 100 µM in experiment [2], more than 100 µM in experiment [5] and more than 100 µM in experiment [6].

With `O=C1N=C2SC=C(NC(=S)Nc3ccccc3)N2NC12c1ccccc1-c1ccccc12`, the TGI in experiment [1], in experiment [2], in experiment [3], in experiment [4], in experiment [5] and in experiment [6] was more than 10 µM each time.

As to `CCC(NC(C)c1ccccc1)C(=O)c1ccc(OCc2ccccc2)c(OCc2ccccc2)c1` (stereo unspecified), the TGI in experiment [1], in experiment [2], in experiment [3], in experiment [4], in experiment [5] and in experiment [6] was more than 100 µM each time.

As for `Brc1ccc(C2C3CSc4ccccc4C3=NN2c2ccccc2)cc1` (stereo unspecified), the TGI in experiment [1], in experiment [2], in experiment [3], in experiment [4], in experiment [5] and in experiment [6] was more than 100 µM each time.

In the case of `CN(C)c1ccc(/C=C/C(=O)c2ccc(O)cc2)cc1`, the TGI is more than 100 µM in experiment [1]; 8.38 µM in experiment [2]; 22.8 µM in experiment [3]; 13.5 µM in experiment [4]; 23.3 µM in experiment [5]; 61.9 µM in experiment [6].

For `CCOC(=O)N/N=C(/N)c1cccc(Br)c1`, the TGI in experiment [1], in experiment [2], in experiment [3], in experiment [4], in experiment [5] and in experiment [6] was more than 100 µM throughout.

As for `Nc1nc(NNc2cccc(F)c2)cc(=O)[nH]1`, the TGI was 74 µM in experiment [2], more than 100 µM in experiment [3], more than 100 µM in experiment [4] and more than 100 µM in experiment [5].

As for `CC(=O)CCCCn1c(=O)c2c(nc(Br)n2C)n(C)c1=O`, the TGI in experiment [1] was 3.87 µM; in experiment [2], more than 100 µM; in experiment [3] it was more than 100 µM; in experiment [4], more than 100 µM; in experiment [5], more than 100 µM; in experiment [6] it was more than 100 µM.

With `COc1ccc(/C=c2\c(=O)[nH]c3nc4ccccc4c(=O)n23)cc1`, the TGI in experiment [1], in experiment [4], in experiment [5] and in experiment [6] was more than 100 µM in each case.

Turning to `COc1nc(N=P(c2ccccc2)(c2ccccc2)c2ccccc2)cc(=O)n1C`, the TGI in experiment [1], in experiment [2], in experiment [3], in experiment [4], in experiment [5] and in experiment [6] was more than 100 µM in each case.

As for `CC(C)(C)OC(=O)NC1CCCC1C(=O)C1=CCCC1` (stereo unspecified), the TGI in experiment [2], in experiment [3], in experiment [5] and in experiment [6] was more than 100 µM in each case.

For the compound `CCN(CC)CCCNc1c2c(Cl)cc(Cl)cc2nc2nc(=O)[nH]c(C)c12`, the TGI in experiment [1] is more than 100 µM; in experiment [2], more than 100 µM; in experiment [3] it was 37.1 µM; in experiment [4] it was more than 100 µM; in experiment [5], more than 100 µM; in experiment [6] it was 58 µM.

For `O=c1[nH]/c(=C/c2ccc3c(c2)OCO3)c(=O)[nH]/c1=C/c1ccc2c(c1)OCO2`, the TGI in experiment [1], in experiment [2], in experiment [3], in experiment [4], in experiment [5] and in experiment [6] was more than 10 µM each time.

With `CC(C)Oc1c(C2(c3ccccc3)SCCCS2)c(=O)c1=O`, the TGI in experiment [1], in experiment [3], in experiment [4], in experiment [5] and in experiment [6] was more than 100 µM each time.

Consider `O=c1[nH]nc(Cc2ccccc2)n1/N=C/c1cccs1`, for which the TGI in experiment [1], in experiment [2], in experiment [3], in experiment [4] and in experiment [6] was more than 100 µM each time.

For `COc1ccc(-n2c(CCC(=O)O)nc3c2C(=O)c2ccccc2C3=O)cc1`, the TGI in experiment [1], in experiment [2], in experiment [3], in experiment [4], in experiment [5] and in experiment [6] was more than 100 µM throughout.

`CC1=NN(c2nc(N)nc(NS(=O)(=O)c3cc(C)c(Cl)cc3S)n2)C(C)(C)C1`: the TGI in experiment [1], in experiment [2], in experiment [3], in experiment [4], in experiment [5] and in experiment [6] was more than 10 µM in each case.

Consider `C[C@@H](CC(O)C(O)C(C)(C)O)C1CCC23CC12CCC1[C@@]2(C)CCC(O)C(C)(C)C2CC(OC2OC(CO)C(O)C(O)C2O)[C@]13C` (stereo partly specified), for which the TGI in experiment [1], in experiment [2], in experiment [3], in experiment [4], in experiment [5] and in experiment [6] was more than 10 µM throughout.

For `COc1ccc(C2=Nc3c(nc(OC)[nH]c3=O)NC(c3ccccc3)C2)cc1` (stereo unspecified), the TGI in experiment [1] was more than 100 µM; in experiment [2], 73.1 µM; in experiment [4] it was 94.1 µM; in experiment [5], 33.7 µM.

Turning to `CC(C)C1CNC(=O)C2(C=NC(C(C)C)CNC(=O)C3(C=N1)CCCO3)CCCO2` (stereo unspecified), the TGI in experiment [1], in experiment [2], in experiment [4], in experiment [5] and in experiment [6] was more than 10 µM each time.

Take `C=CCCC1(O)C(O)C(CO)O[C@H](O[C@@]2(CO)OC(CO)C(O)C2O)C1O` (stereo partly specified): the TGI in experiment [1], in experiment [2], in experiment [3], in experiment [4] and in experiment [5] was more than 100 µM in each case.

On to `CC1=CC(=O)CC2(C)CCC(C(C)CC(=O)CC(C)C)CC12OO` (stereo unspecified), for which the TGI in experiment [1] is 33.5 µM and 33.4 µM; in experiment [2], 75 µM and 31.9 µM; in experiment [3], 25.1 µM and > 100 µM; in experiment [4], 28.9 µM and 30 µM; in experiment [5], 35.5 µM and 30.3 µM. Also, the GI50 in experiment [3] was 11.6 µM and 31 µM.

Take `O=C1Oc2ccccc2C1C/C(=N\Nc1ccccc1)c1ccccc1O` (stereo unspecified): the TGI in experiment [1], in experiment [3], in experiment [4], in experiment [5] and in experiment [6] was more than 100 µM throughout.

On to `CC(CSC(=N)N)C(N)=O` (stereo unspecified), for which the TGI in experiment [1], in experiment [2], in experiment [3], in experiment [5] and in experiment [6] was more than 100 µM in each case.

In the case of `Cn1c(=O)c2[nH]c(N=O)nc2n(C)c1=O`, the TGI in experiment [1], in experiment [2], in experiment [3], in experiment [4] and in experiment [6] was more than 100 µM throughout.

Consider `[N-]=[N+]=Nc1ccccc1-c1ccccc1[N+](=O)[O-]`, for which the TGI in experiment [1] was more than 100 µM; in experiment [2], more than 100 µM; in experiment [3] it was 99 µM; in experiment [6], more than 100 µM.

As for `CC(=O)OI1NC(=O)c2ccccc21`, the TGI in experiment [2], in experiment [5] and in experiment [6] was more than 100 µM in each case.

As for `O=C(CNc1ccccn1)Nn1cnc2ccc(S(=O)(=O)Nc3ccccn3)cc2c1=O`, the TGI in experiment [1], in experiment [2], in experiment [3], in experiment [4] and in experiment [6] was more than 100 µM each time.

For `CN(C)CCN(C)P12(Oc3ccccc3O1)Oc1c(Cl)c(Cl)c(Cl)c(Cl)c1O2`, the TGI in experiment [2], in experiment [3], in experiment [5] and in experiment [6] was more than 100 µM throughout.

For `C1CNOCCCONCCCNOCCCONC1`, the TGI in experiment [1] was more than 100 µM; in experiment [2] it was more than 100 µM; in experiment [3] it was 94 µM; in experiment [5] it was more than 100 µM; in experiment [6] it was more than 100 µM.

For `Cc1ccc(S(=O)c2cccs2)cc1` (stereo unspecified), the TGI in experiment [2], in experiment [3] and in experiment [4] was more than 100 µM each time.

Consider `CSc1ncnc2c1cnn2Cc1cn(COCCO)nn1`, for which the TGI in experiment [2], in experiment [3], in experiment [4], in experiment [5] and in experiment [6] was more than 100 µM each time.

Turning to `C[C@]12C=CC(=O)C=C1CC[C@@H]1[C@@H]2CC[C@@]2(C)[C@H]1CC[C@]2(O)C(N)=O`, the TGI in experiment [2], in experiment [3], in experiment [4], in experiment [5] and in experiment [6] was more than 100 µM throughout.

With `CO/C(N)=C(\C#N)N=Cc1ccc2ccccc2c1`, the TGI was more than 100 µM in experiment [1], 94.6 µM in experiment [2], more than 100 µM in experiment [5] and more than 100 µM in experiment [6].

For the compound `CCOC(=O)C(NC(=O)OCc1ccccc1)C(=O)O` (stereo unspecified), the TGI in experiment [1], in experiment [2], in experiment [3], in experiment [4] and in experiment [5] was more than 100 µM each time.

As to `CC1(C)CCN2C(=O)C34CCCC3CC21S4` (stereo unspecified), the TGI in experiment [1], in experiment [2], in experiment [4], in experiment [5] and in experiment [6] was more than 100 µM throughout.

As to `COC(=O)C1(NC(=O)C(Cc2ccccc2)N(C(=O)OC(C)(C)C)C(=O)OC(C)(C)C)CCCC1` (stereo unspecified), the TGI in experiment [2], in experiment [3], in experiment [4], in experiment [5] and in experiment [6] was more than 100 µM in each case.

These data come from PubChem BioAssay (NCI).
